Measurements reported in PubChem BioAssay (NCI).
“And” between values parts separate entries of the source, which are not always exact repeats. Equal entries are not always repeated.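 Method: 48-hour compound exposure of cells in 96-well plates, five concentrations, linear interpolation of endpoints. GI50: concentration for 50% inhibition of growth. TGI: concentration producing complete growth inhibition.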

Legend:
Test in all cases: DTP human tumour cell line panel, 48 h
COLO 205 colon = system: COLO 205 colon
MDA-MB-231 breast = system: MDA-MB-231 breast
SR leukemia = system: SR leukemia
CCRF-CEM leukemia = system: CCRF-CEM leukemia
A549 NSCLC = system: A549 NSCLC
A498 renal = system: A498 renal
MALME-3M melanoma = system: MALME-3M melanoma
LOX IMVI melanoma = system: LOX IMVI melanoma
RXF 393 renal = system: RXF 393 renal
NCI-H522 lung = system: NCI-H522 lung

SMILES	GI50 (COLO 205 colon)	TGI (COLO 205 colon)	GI50 (MDA-MB-231 breast)	TGI (MDA-MB-231 breast)	GI50 (SR leukemia)	TGI (SR leukemia)	GI50 (CCRF-CEM leukemia)	TGI (CCRF-CEM leukemia)	GI50 (A549 NSCLC)	TGI (A549 NSCLC)	GI50 (A498 renal)	TGI (A498 renal)	GI50 (MALME-3M melanoma)	TGI (MALME-3M melanoma)	GI50 (LOX IMVI melanoma)	TGI (LOX IMVI melanoma)	GI50 (RXF 393 renal)	TGI (RXF 393 renal)	GI50 (NCI-H522 lung)	TGI (NCI-H522 lung)
C[C@@H](NC(=O)Cc1cc(F)cc(F)c1)C(=O)N[C@@]1(C)N=C(c2ccccc2)c2ccccc2N(C)C1=O	47.2 µM	> 100 µM	15.9 µM	> 96.6 µM	2.5 µM	> 22.7 µM	24.6 µM	> 100 µM	66.1 µM	> 100 µM	1.13 µM	42.6 µM	> 60.8 µM	> 100 µM	45.7 µM	> 100 µM	30.7 µM	> 100 µM	69.2 µM	> 100 µM
COC(=O)[C@H](Cc1ccccc1)NC(=O)c1csc([C@@H](C[C@H](C(C)C)N(C)C(=O)[C@@H](NC(=O)[C@H]2CCCCN2C)C2CC2)OC(C)=O)n1	0.048 µM	0.362 µM	0.0763 µM	> 12.5 µM	0.00563 µM	> 25 µM	0.021 µM	> 25 µM	0.0991 µM	> 25 µM	0.0693 µM	1.67 µM	2.16 µM	> 25 µM	0.0403 µM	> 25 µM	0.0351 µM	> 25 µM	0.00654 µM	0.3 µM
CCN(CC)CCC(=O)Nc1ccc(Cn2nnc3c2C(=O)c2nnn(Cc4ccc(NC(=O)CCN(CC)CC)cc4)c2C3=O)cc1	0.175 µM	0.333 µM	0.253 µM	10.2 µM	0.507 µM	5 µM	0.24 µM		1.51 µM	3.4 µM	2.45 µM	9.49 µM	0.137 µM	0.294 µM	0.232 µM	0.703 µM	3.6 µM	15.2 µM	0.18 µM	0.423 µM
COc1ccc2c(c1O)[C@@]13C=C(O)C(=O)C=C1[C@@H](C2)N(C)CC3		> 100 µM		> 100 µM		> 100 µM		> 100 µM		> 100 µM				> 100 µM		> 100 µM		> 100 µM		> 100 µM
CC1Cc2c(N(C)C)ncnc2N(C)c2ccc(Cl)cc21 (stereo not given)	2.44 µM	6.55 µM	5.84 µM	55.4 µM	0.463 µM	20.3 µM	2.92 µM	18 µM	10.7 µM	> 100 µM	3.53 µM	19.2 µM	3.73 µM	60 µM	6 µM	27.2 µM	2.03 µM	6.98 µM	2.79 µM	35.3 µM
Cn1c(=O)n(-c2ccc(C(C)(C)C#N)cc2)c2c3cc(-c4cnc5ccccc5c4)ccc3ncc21	0.0231 µM and 0.00593 µM	0.702 µM and 0.938 µM	0.0197 µM and 0.00686 µM and < 0.011 µM	48.5 µM and > 10 µM and > 44.3 µM	0.0386 µM and 0.00551 µM and < 0.0137 µM	> 100 µM	< 0.01 µM and 0.00575 µM and < 0.0109 µM	> 100 µM	0.0102 µM and 0.00594 µM and < 0.01 µM		< 0.01 µM and 0.00365 µM	0.007 µM and 0.0306 µM	0.00576 µM and < 0.01 µM	0.04 µM and 0.0568 µM	< 0.01 µM and 0.00522 µM	> 100 µM	< 0.01 µM and 0.00351 µM	0.0605 µM and 0.00781 µM and 0.0181 µM	< 0.0107 µM and 0.00646 µM and < 0.0112 µM	
O=C1OC(c2ccc(O)cc2)(c2ccc(O)cc2)c2cccc3cccc1c23	0.737 µM	18.4 µM	14.2 µM	35.5 µM	10.8 µM	38.3 µM	19.8 µM	48.4 µM	14.4 µM	36.2 µM	0.488 µM	15.3 µM	20 µM	43.4 µM	15.2 µM	34.7 µM	14.6 µM	29.9 µM	14 µM	33.5 µM
Cc1ccc(NCSc2ccc(Cl)cc2)cc1	5.94 µM	> 100 µM	15.1 µM	> 100 µM	> 100 µM	> 100 µM	0.995 µM	> 100 µM	9.8 µM	> 100 µM	18.8 µM	> 100 µM	> 100 µM	> 100 µM	> 100 µM	> 100 µM	30.4 µM	> 100 µM	21.9 µM	> 100 µM
CCCC/C(=N\N=C(N)N)c1ccc(F)cc1	1.78 µM	3.41 µM	5.42 µM	18.9 µM	0.481 µM	11.9 µM	2.23 µM	11.7 µM	4.66 µM	16.7 µM	2.59 µM	8.08 µM	4.13 µM	18.5 µM	1.33 µM	13.5 µM	2.04 µM	5.81 µM	3.79 µM	16.5 µM
CC[C@]12C=CCN3CC[C@]4(C(=C(C(=O)OC)C1)Nc1cc(O)ccc14)[C@@H]32	21.8 µM	47.3 µM	13.8 µM	41.6 µM	12.3 µM	> 100 µM	25.3 µM	> 100 µM	23.3 µM	70.8 µM	18.1 µM	36.5 µM	11.8 µM	26.3 µM	13.6 µM	26.7 µM	13.3 µM	28.9 µM	15.1 µM	55.2 µM
O=C(/C=C/N1CCN(c2cccc(C(F)(F)F)c2)CC1)c1ccc(Cl)cc1Cl	36.2 µM	> 100 µM	26.8 µM	59.8 µM	30.1 µM	56 µM	49.6 µM	> 100 µM	39.8 µM	> 100 µM	21.6 µM	38.8 µM	17.4 µM	36.2 µM	22.7 µM	47.1 µM	30.9 µM	73.4 µM	36.1 µM	> 100 µM
COC(=O)c1cc(Nc2ccc(O)c3c2C(=O)c2c([N+](=O)[O-])ccc(O)c2C3=O)cc(C(=O)OC)c1	2.38 µM	5.56 µM	13.8 µM	> 100 µM	3.19 µM	42.6 µM	4.27 µM	> 100 µM	1.74 µM	4.05 µM	20.8 µM	> 100 µM	2.75 µM	6.39 µM	6.39 µM	> 100 µM	5.09 µM	> 100 µM	4.07 µM	28.3 µM
CC(C)(C)n1cc(-c2ccnc(NCCNS(=O)(=O)c3ccc(Br)cc3)c2)c(-c2cccc(O)c2)n1	1.49 µM	3.13 µM	1.91 µM	4.07 µM	0.286 µM	6.16 µM	2.69 µM	18.2 µM	2.19 µM	6.5 µM	1.37 µM	3.19 µM	1.67 µM	3.34 µM	1.75 µM	3.15 µM	1.49 µM	3.23 µM	1.79 µM	4.04 µM
CC(CC(=O)O)(CC(=O)O)C(=O)O		> 100 µM		> 100 µM		> 100 µM				> 100 µM		> 100 µM		> 100 µM		> 100 µM		> 100 µM		> 100 µM
CN1C(=O)c2cc(Cl)nc3c(NC(=O)c4cccc(Cl)c4)c(Cl)c(NC(=O)c4cccc(Cl)c4)c1c23	1.94 µM	4.01 µM	2.05 µM	4.24 µM	0.58 µM	2.95 µM	2.01 µM	5.59 µM	4.14 µM	14.8 µM	3.49 µM	12.7 µM	1.66 µM	3.44 µM	1.21 µM	2.58 µM	1.67 µM	3.12 µM	1.82 µM	3.75 µM
CCOP(=O)(OCC)/C(C#N)=C\c1cccc2ccccc12		> 100 µM		> 100 µM		> 75.1 µM		97.7 µM		> 100 µM		98.7 µM		> 100 µM		> 59.4 µM		> 100 µM		> 100 µM
COc1ccccc1Cn1cc2c(c1)-c1oncc1CC2	0.553 µM	2.43 µM	1.34 µM	> 100 µM	0.379 µM	8.95 µM	0.29 µM		0.825 µM	> 75 µM	0.269 µM	3.44 µM	1.41 µM	> 100 µM	0.946 µM	23.1 µM	1.31 µM	> 21.4 µM	1.22 µM	5.08 µM
Cc1ccc([P+](Cc2ccc([N+](=O)[O-])cc2)(c2ccc(C)cc2)c2ccc(C)cc2)cc1	1.65 µM	3.95 µM	1.46 µM	7.38 µM	2.84 µM	12.3 µM	1.92 µM	12.5 µM	14.4 µM	57 µM	2.54 µM	12.7 µM			2.32 µM	12.5 µM	5.55 µM	20.2 µM	1.56 µM	4.26 µM
O=C(Oc1c(I)ccccc1=O)c1ccc([N+](=O)[O-])cc1		27.8 µM		87.7 µM		24.2 µM		> 100 µM		63.2 µM		17 µM		30.7 µM		83.2 µM		21.7 µM		36.7 µM
Cc1cc(CS(=O)(=O)/C=C/c2ccccc2[N+](=O)[O-])c(CS(=O)(=O)/C=C/c2ccccc2[N+](=O)[O-])cc1C		> 100 µM		> 51.2 µM		> 100 µM		> 46.4 µM		> 100 µM		70.9 µM		> 100 µM		> 100 µM		41.2 µM		> 100 µM
c1ccc2c(c1)nc(NCCN1CCNCC1)c1c3ccccc3[nH]c21	0.346 µM	1.87 µM	0.676 µM	2.28 µM	0.226 µM	1.33 µM	0.086 µM	1.82 µM	0.206 µM	1.21 µM	1.56 µM	3.27 µM	1.79 µM	3.82 µM	0.295 µM	1.03 µM	0.438 µM	2.04 µM	0.22 µM	1.07 µM
N#CC1c2ccccc2-c2ccccc2N1C(=O)c1ccccc1 (stereo not given)	1.56 µM	3.67 µM	2.61 µM	9.06 µM	2.92 µM		2.17 µM	> 36.3 µM	2.97 µM	> 38.8 µM	1.32 µM	5.55 µM	1.22 µM	54.2 µM	2.81 µM	> 94.3 µM	0.913 µM	13.2 µM	0.223 µM	1.48 µM
CCCCCCCCCCCCCCCC[N+]1(CC)CCCC1	0.291 µM	0.731 µM	0.589 µM	2.19 µM	0.655 µM	4.42 µM	0.379 µM	1.84 µM	1.07 µM	2.59 µM	0.397 µM	2.94 µM	0.582 µM	1.98 µM	0.162 µM	0.454 µM				
O=C1C=C(Nc2cccc(Br)c2)c2ccccc2C1=O	> 100 µM	> 100 µM	1.51 µM	36.5 µM	10.2 µM	40.3 µM	21.4 µM	82.9 µM	1.54 µM	12.3 µM	4.06 µM	27.2 µM			4.35 µM	21.5 µM	3.27 µM	22.4 µM	4.79 µM	60.1 µM
O=C1c2c(O)cccc2C(C(=O)CCCCC(=O)C2c3cccc(O)c3C(=O)c3c(O)cccc32)c2cccc(O)c21	1.02 µM	3.36 µM and 2.21 µM		0.9 µM	1.41 µM	25 µM and 2.87 µM	1.2 µM	2.65 µM and 2.61 µM	1.1 µM	1.06 µM and 2.43 µM	2.14 µM	5.27 µM and 7.36 µM		4.38 µM and 2.92 µM	1.56 µM	2.74 µM and 5.08 µM			1.25 µM	1.07 µM and 2.92 µM
COc1ccc(C2=CC(c3cc(OC)c(OC)c(OC)c3)n3ncnc3N2)cc1 (stereo not given)	0.0335 µM	0.16 µM	0.193 µM	83.5 µM	0.0439 µM	> 100 µM	0.0425 µM	> 100 µM	0.0858 µM	30.3 µM	0.0426 µM	25.1 µM			0.0898 µM	> 100 µM			0.0324 µM	0.654 µM
CCOC(=O)c1[nH]c2c(c1C)-c1[nH]c(=O)c(S(=O)(=O)c3ccccc3)cc1SC2	22.5 µM	46.4 µM	34.9 µM	> 100 µM	30.3 µM	> 100 µM	57.8 µM	> 100 µM	41.3 µM	> 100 µM	1.68 µM	> 100 µM	36.4 µM	> 100 µM			28.4 µM	> 100 µM	28.7 µM	> 100 µM
